Experimental data reported in US20250243186A1, “PIPERIDINYL INDOLE DERIVATIVES, PREPARATION METHODS AND MEDICINAL USES THEREOF” (HANSOH BIO LLC, priority 2021, published 2025).

These compounds were tested against Recombinant human Factor B catalytic domain (Homo sapiens (Human), UniProt P00751) (assay: Factor B binding assay by TR-FRET). Details: Factor B TR-FRET IC50 (nM), 10 nM his-tagged Factor B catalytic domain, 100 nM tracer, 1 h.
Sequence of Recombinant human Factor B catalytic domain (P00751 470-764): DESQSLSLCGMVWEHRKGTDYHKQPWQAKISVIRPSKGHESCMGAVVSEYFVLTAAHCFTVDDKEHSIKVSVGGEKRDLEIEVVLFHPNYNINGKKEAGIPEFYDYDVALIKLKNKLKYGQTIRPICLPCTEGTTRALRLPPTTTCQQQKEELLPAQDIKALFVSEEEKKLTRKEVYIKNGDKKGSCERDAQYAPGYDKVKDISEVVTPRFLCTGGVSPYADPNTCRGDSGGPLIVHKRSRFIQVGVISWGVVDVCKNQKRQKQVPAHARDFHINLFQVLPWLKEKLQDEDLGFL
Protocol: • 1. […] 5× Kinase Buffer A (Thermo Fisher, CAT #PV3189) • 3. LANCE Eu-W1024 Anti-6×His Antibody (PerkinElmer, CAT #AD0401) • 4.
DMSO (Thermo Fisher Scientific) • 6. Compounds—10 mM stock in DMSO • 7. Victor Nivo multimode plate reader (PerkinElmer) • 8.
Factor B binding affinity of each compound tested was determined using a time-resolved fluorescence resonance energy transfer (TR-FRET) technology. 10 nM recombinant his-tagged Factor B catalytic domain, varying concentrations of inhibitors, 4 nM LANCE Eu-W1024 Anti-6×His Antibody and 100 nM TR-FRET_tool2 tracer was incubated in 1× Kinase Buffer A for 1 h. Measurement was performed in a reaction volume of 15 μL by adding 5 μL of the test compound, 5 μL of Factor B/antibody mixture and 5 μL of tracer into white opaque 384-well assay plates.

Row | Compound | IC50 [nM]
1 | COc1cc(C)c2[nH]ccc2c1CN1CC2CC(C(F)F)CC2C1c1ccc(C(=O)O)cc1 (single isomer, unassigned) [39 (Isomer 1), 4-(5-(difluoromethyl)-2-((5-methoxy-7-methyl-1H-indol-4-yl)methyl)octahydrocyclopenta[c]pyrrol-1-yl)benzoic acid] | 2.6
2 | COc1cc(C)c2[nH]ccc2c1CN1CCC2(CCOC2)CC1c1ccc(C(=O)O)cc1 (single isomer, unassigned) [36 (Isomer 3), 4-(8-((5-methoxy-7-methyl-1H-indol-4-yl)methyl)-2-oxa-8-azaspiro[4.5]decan-7-yl)benzoic acid] | 125
3 | COc1cc(C)c2[nH]ccc2c1CN1CCC2(CCC1c1ccc(C(=O)O)cc1)CC2(F)F (single isomer, unassigned) [24 (Isomer 2), 4-(1,1-difluoro-6-((5-methoxy-7-methyl-1H-indol-4-yl)methyl)-6-azaspiro[2.6]nonan-7-yl)benzoic acid] | 729
4 | Cc1cc(C)c2[nH]ccc2c1CN1CCC(CF)CC1c1ccc(C(=O)O)cc1 (single isomer, unassigned) [7 (Isomer 1), 4-(1-((5,7-dimethyl-1H-indol-4-yl)methyl)-4-(fluoromethyl)piperidin-2-yl)benzoic acid] | 313
5 | Cc1cc(C2CC2)c(CN2CC3CCCC3C2c2ccc(C(=O)O)cc2)c2cc[nH]c12 (single isomer, unassigned) [32 (Isomer 1), 4-(2-((5-cyclopropyl-7-methyl-1H-indol-4-yl)methyl)octahydrocyclopenta[c]pyrrol-1-yl)benzoic acid] | 26.3
6 | COc1cc(C)c2[nH]ccc2c1C(C)N1CC2CCCC2C1c1ccc(C(=O)O)cc1 (single isomer, unassigned) [37 (Isomer 4), 4-(2-(1-(5-methoxy-7-methyl-1H-indol-4-yl)ethyl)octahydrocyclopenta[c]pyrrol-1-yl)benzoic acid] | 359
7 | COc1cc(C)c2[nH]ccc2c1C(C)N1CC2CCCC2C1c1ccc(C(=O)O)cc1 (single isomer, unassigned) [37 (Isomer 1), 4-(2-(1-(5-methoxy-7-methyl-1H-indol-4-yl)ethyl)octahydrocyclopenta[c]pyrrol-1-yl)benzoic acid] | 322
8 | COc1cc(C)c2[nH]ccc2c1CN1C[C@@H]2CC(C)(C)C[C@@H]2C1c1ccc(C(=O)O)cc1 (single isomer, unassigned) [34 (Isomer 1)] | 7.7
9 | COc1cc(C)c2[nH]ccc2c1CN1CCC2(CC1c1ccc(C(=O)O)cc1)CC(C)(F)C2 (single isomer, unassigned) [42 (Isomer 1), 4-(2-fluoro-7-((5-methoxy-7-methyl-1H-indol-4-yl)methyl)-2-methyl-7-azaspiro[3.5]nonan-6-yl)benzoic acid] | 4
10 | COc1cc(C)c2[nH]ccc2c1CN1CC2CCCC2C1c1ccc(C(=O)O)cc1 (single isomer, unassigned) [13 (Isomer 1), 4-(2-((5-methoxy-7-methyl-1H-indol-4-yl)methyl)octahydrocyclopenta[c]pyrrol-1-yl)benzoic acid] | 17.4
11 | COc1cc(C)c2[nH]ccc2c1C(C)N1CC2CCCC2C1c1ccc(C(=O)O)cc1 (single isomer, unassigned) [37 (Isomer 3), 4-(2-(1-(5-methoxy-7-methyl-1H-indol-4-yl)ethyl)octahydrocyclopenta[c]pyrrol-1-yl)benzoic acid] | 222
12 | Cc1cc(C)c2[nH]ccc2c1CN1CCC2(CCCO2)CC1c1ccc(C(=O)O)cc1 (single isomer, unassigned) [2 (Isomer 6), 4-(8-((5,7-dimethyl-1H-indol-4-yl)methyl)-1-oxa-8-azaspiro[4.5]decan-7-yl)benzoic acid] | 60
13 | COc1cc(C)c2[nH]ccc2c1CN1CC2CC(C(F)F)CC2C1c1ccc(C(=O)O)cc1 (single isomer, unassigned) [39 (Isomer 2), 4-(5-(difluoromethyl)-2-((5-methoxy-7-methyl-1H-indol-4-yl)methyl)octahydrocyclopenta[c]pyrrol-1-yl)benzoic acid] | 4.1
14 | COc1cc(C)c2[nH]ccc2c1CN1CCCCC1c1ccc(C(=O)O)cc1C(F)F (single isomer, unassigned) [26 (Isomer 1), 3-(difluoromethyl)-4-(1-((5-methoxy-7-methyl-1H-indol-4-yl)methyl)piperidin-2-yl)benzoic acid] | 31.5
15 | COc1cc(C)c2[nH]ccc2c1CN1CC2(CCOC2)CC1c1ccc(C(=O)O)cc1 (single isomer, unassigned) [28 (Isomer 2), 4-(7-((5-methoxy-7-methyl-1H-indol-4-yl)methyl)-2-oxa-7-azaspiro[4.4]nonan-8-yl)benzoic acid] | 81.5
16 | Cc1cc(C)c2[nH]ccc2c1CN1C[C@@H]2CCCC2C1c1ccc(C(=O)O)cc1 (single isomer, unassigned) [9 (Isomer 2), 4-(2-((5,7-dimethyl-1H-indol-4-yl)methyl)octahydrocyclopenta[c]pyrrol-1-yl)benzoic acid] | 40.6
17 | COc1cc(C)c2[nH]ccc2c1CN1CCC2(CCOC2)CC1c1ccc(C(=O)O)cc1 (single isomer, unassigned) [36 (Isomer 2), 4-(8-((5-methoxy-7-methyl-1H-indol-4-yl)methyl)-2-oxa-8-azaspiro[4.5]decan-7-yl)benzoic acid] | 16.6
18 | COc1cc(C)c2[nH]ccc2c1CN1CC2CC(C(F)F)CC2C1c1ccc(C(=O)O)cc1 (single isomer, unassigned) [39 (Isomer 3), 4-(5-(difluoromethyl)-2-((5-methoxy-7-methyl-1H-indol-4-yl)methyl)octahydrocyclopenta[c]pyrrol-1-yl)benzoic acid] | 7.3
19 | Cc1cc(C)c2[nH]ccc2c1CN1CCC(C(F)F)CC1c1ccc(C(=O)O)cc1 (single isomer, unassigned) [6 (Isomer 2), 4-(4-(difluoromethyl)-1-((5,7-dimethyl-1H-indol-4-yl)methyl)piperidin-2-yl)benzoic acid] | 142
20 | COc1cc(C)c2[nH]ccc2c1CN1CCC2(CCO2)CC1c1ccc(C(=O)O)cc1 (single isomer, unassigned) [38 (Isomer 4), 4-(7-((5-methoxy-7-methyl-1H-indol-4-yl)methyl)-1-oxa-7-azaspiro[3.5]nonan-6-yl)benzoic acid] | 4.8

The next lines start with the values.

Row | IC50 [nM] | Compound
21 | 20.1 | COc1cc(C)c2[nH]ccc2c1CN1CCC2(CCC(F)(F)C2)CC1c1ccc(C(=O)O)cc1 (centres unmarked) [Example 41, 4-(2,2-difluoro-8-((5-methoxy-7-methyl-1H-indol-4-yl)methyl)-8-azaspiro[4.5]decan-7-yl)benzoic acid]
22 | 132 | COc1cc(C)c2[nH]ccc2c1CN1CC2(CCOCC2)CC1c1ccc(C(=O)O)cc1 (centres unmarked) [Example 30, 4-(2-((5-methoxy-7-methyl-1H-indol-4-yl)methyl)-8-oxa-2-azaspiro[4.5]decan-3-yl)benzoic acid]

Same assay, conditions: read-out: Factor B TR-FRET IC50; 10 nM his-tagged Factor B catalytic domain, 100 nM tracer, 1 h

Row | Compound | IC50 [nM]
23 | [2H]C([2H])([2H])Oc1cc(C)c2[nH]ccc2c1CN1CCC2(C[C@H]1c1ccc(C(=O)O)cc1)CC(F)(F)C2 [Example 82] | < 2
24 | Cc1cc(C)c2[nH]ccc2c1CN1CCC2(C[C@H]1c1ccc(C(=O)O)cc1)CC(F)(F)C2 (single isomer, unassigned) [76 (Isomer 1)] | < 2

More lines, now with the values ahead:

Row | IC50 [nM] | Compound
25 | < 2 | Cc1cc(C(=O)O)ccc1[C@@H]1CC2(CCN1Cc1c(C3CC3)cc(C)c3[nH]ccc13)CC(F)(F)C2 [Example 83]
26 | < 2 | CCc1cc(C)c2[nH]ccc2c1CN1CCC2(C[C@H]1c1ccc(C(=O)O)cc1)CC(F)(F)C2 [Example 80]
27 | 2.1 | CCOc1cc(C)c2[nH]ccc2c1CN1CCC2(C[C@H]1c1ccc(C(=O)O)cc1)CC(F)(F)C2 [Example 86]
28 | 47.3 | C=C(F)c1cc(C)c2[nH]ccc2c1CN1CCC2(C[C@H]1c1ccc(C(=O)O)cc1)CC(F)(F)C2 [Example 81]
29 | 143 | COc1cc(C)c2[nH]ccc2c1CN1CC2CN(CC(F)F)CC2C1c1ccc(C(=O)O)cc1 (centres unmarked) [Example 23, 4-(5-(2,2-difluoroethyl)-2-((5-methoxy-7-methyl-1H-indol-4-yl)methyl)octahydropyrrolo[3,4-c]pyrrol-1-yl)benzoic acid]
30 | 322 | COc1cc(C)c2[nH]ccc2c1CN1CCCCC1c1ccc(C(=O)O)c(C(F)F)c1 (centres unmarked) [Example 25, 2-(difluoromethyl)-4-(1-((5-methoxy-7-methyl-1H-indol-4-yl)methyl)piperidin-2-yl)benzoic acid]
31 | < 2 | COc1cc(C)c2[nH]ccc2c1CN1CCC2(C[C@H]1c1ccc(C(=O)O)c(F)c1)CC(F)(F)C2 [Example 64]
32 | 3.1 | COc1cc(C)c2[nH]ccc2c1CN1CCC2(C[C@H]1c1ccc3c(C(=O)O)cccc3c1)CC(F)(F)C2 [Example 84]
33 | 844 | COc1cc(C)c2[nH]ccc2c1CN1CC(CF)CC1c1ccc(C(=O)O)cc1 (centres unmarked) [Example 21, 4-(4-(fluoromethyl)-1-((5-methoxy-7-methyl-1H-indol-4-yl)methyl)pyrrolidin-2-yl)benzoic acid]
34 | 265 | Cc1cc(C)c2[nH]ccc2c1CN1C[C@@H]2CCCCC2C1c1ccc(C(=O)O)cc1 (stereo in doubt) [Example 10, 4-(2-((5,7-dimethyl-1H-indol-4-yl)methyl)octahydro-1H-isoindol-1-yl)benzoic acid]
35 | < 2 | COc1cc(C)c2[nH]ccc2c1CN1CCC2(C[C@H]1c1ccc(C(=O)O)c(C)c1)CC(F)(F)C2 [Example 62]
36 | < 2 | COc1cc(C)c2[nH]ccc2c1CN1CCC2(C[C@H]1c1ccc(C(=O)O)c3ccccc13)CC(F)(F)C2 [Example 85]
37 | 923 | Cc1cc(C)c2[nH]ccc2c1CN1CC2CC2C1c1ccc(C(=O)O)cc1 (centres unmarked) [Example 1, 4-(3-((5,7-dimethyl-1H-indol-4-yl)methyl)-3-azabicyclo[3.1.0]hexan-2-yl)benzoic acid]
38 | 173 | Cc1cc(C)c2[nH]ccc2c1CN1CCC(CCO)=CC1c1ccc(C(=O)O)cc1 (centres unmarked) [Example 4, 4-(1-((5,7-dimethyl-1H-indol-4-yl)methyl)-4-(2-hydroxyethyl)-1,2,5,6-tetrahydropyridin-2-yl)benzoic acid]
